Data taken from publication PMC8085982 (Microbial Biotechnology, 2021).
Read-outs that look alike come from different tables or passages of the source.

Experiments:
[1] = system: Pa5930 laccase; details: 50 mM Tris-HCl pH 7.2, 24 °C
[2] = system: Pp4816 laccase; details: 50 mM Tris-HCl pH 7.2, 24 °C
[3] = system: Pa5930 laccase; test: initial rates, OD420, sigmoidal; format: biochemical, Pediococcus acidilactici; details: 50 mM sodium citrate pH 3.4, 24 °C; sigmoidal kinetics
[4] = system: Pp4816 laccase; test: initial rates, OD420, sigmoidal; format: biochemical, Pediococcus pentosaceus; details: 50 mM sodium citrate pH 3.4, 24 °C; sigmoidal kinetics

| Km [1] | Km [2] | Km [3] | Km [4] | SMILES |
| --- | --- | --- | --- | --- |
| 3110 ± 850 µM | 6330 ± 1320 µM | – | – | COc1cccc(OC)c1O [2,6-DMP, 2,6‐dimethoxyphenol] |
| – | – | 330 ± 40 µM | 310 ± 30 µM | CCn1c(=NN=c2sc3cc(S(=O)(=O)O)ccc3n2CC)sc2cc(S(=O)(=O)O)ccc21 [ABTS, 2,2‐azino‐bis(3‐ethylbenzothiazoline‐6‐sulfonic acid)] |
